The test system of assay [1] is mice. The assay can be described thus: Writhing Assay (PBQ-induced writhing, analgesia, intragastric). Particulars: for responders at 30 mg/kg: ip, 0.5 h, read-out: WRITHING ASSAY, number of mice out of nine or ten in which the test compound produced analgesia. The format is in vivo, mouse (Charles River male albino mice). An excerpt:
The Writhing Assay is one of the most widely-used experimental procedures for measuring the analgesic activity of different narcotic and nonnarcotic analgesic agents, and involves the continuous, chemically-induced pain of visceral origin to an animal, such as a mouse or rat. [Gyires et al., Arch. int. […] Chemicals which may be used to induce this pain include phenylbenzoquinone (PBQ) and acetic acid. As a result of the chemical irritation to the animal, a characteristic stretching and writhing of the animal (dorsiflexion of the animal's back, extension of its hindlimbs and the strong contraction of its abdominal musculature) will generally occur. […] Drugs which reduce the number of writhes of the animal appear to restore the normal nociceptive threshold of the animal. […] Charles River male albino mice, weighing 20 to 30 grams, were used in this assay. […] Ten mice which were given saline in place of a test compound of the invention were used as a control group. Five minutes later, each mouse was individually placed into a glass beaker for observation, and the number of writhes occurring during the following ten-minute period was counted. […] The standard initial screening dose of a test compound employed in this assay was 30 mpk […].

The target of assay [2] is T1, prostaglandin E2 -induced contractions of segments of guinea pig ileum (Cavia porcellus, UniProt A0A286XHJ6).
T1 construct: The ilea were then quickly removed from the guinea pigs; from tissue; host or cells: guinea pig ileum segments (male albino guinea pigs)
T1 sequence (A0A286XHJ6 1-405): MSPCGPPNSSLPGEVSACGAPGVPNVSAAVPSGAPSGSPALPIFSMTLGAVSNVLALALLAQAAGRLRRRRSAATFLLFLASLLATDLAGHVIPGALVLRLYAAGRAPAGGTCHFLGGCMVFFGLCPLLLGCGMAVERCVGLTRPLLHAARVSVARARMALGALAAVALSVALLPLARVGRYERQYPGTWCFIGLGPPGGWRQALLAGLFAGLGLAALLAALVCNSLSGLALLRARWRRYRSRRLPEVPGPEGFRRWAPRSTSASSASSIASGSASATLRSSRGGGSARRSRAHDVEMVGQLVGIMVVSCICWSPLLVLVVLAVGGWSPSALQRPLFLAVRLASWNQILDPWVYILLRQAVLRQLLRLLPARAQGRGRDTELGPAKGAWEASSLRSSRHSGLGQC
Briefly: Prostaglandin (PGE) Antagonism Assay (prostaglandin E2-induced contractions of guinea pig ileum segments). Particulars: for PGE in guinea pig ileum, dose ratio: dose ratio of prostaglandin E2 EC50 doses, initial test concentration 3 micromolar. The source says: The ilea were then quickly removed from the guinea pigs and placed in a modified Tyrode solution, a solution which is known to those skilled in the art, containing one-half of the usual amount of magnesium ions. […] Data for a control prostaglandin E2 dose response curve plotting concentration of prostaglandin E2 versus the intensity of contractions, detected isotonically, was then obtained by experimentally adjusting the dose of the prostaglandin E2 being injected into the tissue bath, in a manner known by those of skill in the art. Solutions or suspensions containing an initial concentration (3 micromolar) of a test compound in modified Tyrode solution ("test solutions/suspensions") were then separately substituted for the control bath solution. Each test solution/suspension was then kept in constant contact with the ileum tissue, except for brief periods to drain the bath in preparation for rinsing with fresh test solution/suspension. A second prostaglandin E2 dose response curve was then generated for prostaglandin E2 in the presence of a test compound. A dose ratio of EC50 doses was then calculated from the results of each test in a manner known by those of skill in the art.

[3] abbreviates: Mus musculus, 30 mg per kilogram, I.G., 30 min before PBQ i.p., writhes <= one-half the control median.

Counter-ions that a name gives are not always drawn. Like-named read-outs stand apart in the source and are kept apart here.

Here are results for 20 molecules from patent US5441950A, “Substituted dibenzoxazepine and dibenzthiazepine carbamate compounds, pharmaceutical compositions and methods of use” (G. D. Searle & Co., priority 1994, dated 1995).

Turning to `O=C(CNC(=O)N1Cc2ccccc2Oc2ccc(Cl)cc21)NCc1ccncc1` [Example 6, 8-chloro-N-[[[(4-pyridinylmethyl)amino]carbonyl]methyl]-10(11H)-dibenz[b,f][1,4]oxazepinecarboxamide, hydrochloride], in assay [1] (setting [3]), the responders at 30 mg/kg was found to be 60%. The Kb in assay [2] (Schild plot, prostaglandin E2-induced contractions, read-out: PGE in guinea pig ileum, pA2 (converted)) is 955 nM.
As for `Cl.O=C(CNC(=O)N1Cc2ccccc2Oc2ccc(Cl)cc21)NCCc1ccccn1` [Example 8, 8-chloro-N-[[[[2-(2-pyridinyl)ethyl]amino]carbonyl]methyl]-10(11H) dibenz[b,f][1,4]oxazepinecarboxamide hydrochloride], in assay [1] (setting [3]), the responders at 30 mg/kg stood at 30%. Besides, the “PGE in guinea pig ileum, dose ratio” value in assay [2] was 11.02.
For `O=C(OCCCc1ccncc1)N1Cc2ccccc2Oc2ccc(Cl)cc21` [Example 10, 3-(4-pyridinyl)propyl 8-chloro-10(11H)dibenz[b,f][1,4]oxazepinecarboxylate,monohydrochloride], in that order: 30% and 2.63.
Take `CN(C)Cc1ccc(COC(=O)N2Cc3ccccc3Oc3ccc(Cl)cc32)o1` [Example 12, [2-(dimethylaminomethyl)furan-5-yl]methyl-8-chlorodibenz[b,f][1,4]oxazepine-10(11H)carboxylate, monohydrochloride]: the responders at 30 mg/kg in assay [1] (setting [3]) is 20%.
Consider `O=C(OCCCNCc1ccncc1)N1Cc2ccccc2Oc2ccc(Cl)cc21` [Example 14, 3-[[(4-pyridinyl)methyl]amino]propyl-8-chlorodibenz[b, f][1,4]oxazepine-10(11H)carboxylate, hydrochloride], for which the responders at 30 mg/kg in assay [1] (setting [3]) amounted to 50%. In assay [2], the “PGE in guinea pig ileum, dose ratio” value came out at 25.03.
For `O=C(CNC(=O)N1Cc2ccccc2Oc2ccc(Cl)cc21)Nc1ccncc1` [Example 16, 8-chloro-N-[[[(4-pyridinyl)amino]carbonyl]methyl]dibenz[b,f][1,4]oxazepine-10(11H)carboxamide, monohydrochloride], in that order: 80% and 1.70.
As to `CC(C)(CNC(=O)OCc1ccccc1)NC(=O)N1Cc2ccccc2Oc2ccc(Cl)cc21` [Example 18, phenylmethyl N-[2-[[(8-chlorodibenz[b,f][1,4]oxazepine-10(11H)-yl]carbonyl]amino]-2-methylpropyl]carbamate], the responders at 30 mg/kg in assay [1] (setting [3]) came out at 40%. Besides, the “PGE in guinea pig ileum, dose ratio” value in assay [2] amounted to 2.6.
Consider `O.O=C(NCc1nn[nH]n1)N1Cc2ccccc2Oc2ccc(Cl)cc21.[Na]` [Example 20, 8-chloro-N-[(2H-tetrazol-5-yl)methyl]dibenz[b,f][1,4]oxazepine-10(11H)-carboxamide, sodium salt, hydrate], for which, in assay [1] (Mus musculus), the responders at 30 mg/kg turned out to be 20%. Besides, in assay [2], the “PGE in guinea pig ileum, dose ratio” value is 1.80.
On to `O=C(NCCCCc1ccncc1)N1Cc2ccccc2Oc2ccc(Cl)cc21` [Example 24, 8-chloro-N-[4-(4-pyridinyl)butyl]dibenz[b,f][1,4]oxazepine-10(11H)-carboxamide], for which the responders at 30 mg/kg in assay [1] (setting [3]) worked out at 60%. Besides, the “PGE in guinea pig ileum, dose ratio” value in assay [2] is listed as 7.9.
In the case of `CC(C)(CNC(=O)c1ccncc1)NC(=O)N1Cc2ccccc2Oc2ccc(Cl)cc21` [Example 28, 8-chloro-N-[2-[[(4-pyridinyl)carbonyl]amino-1,1-dimethylethyl]dibenz[b,f][1,4]oxazepine-10(11H)carboxamide, hydrochloride hydrate], the responders at 30 mg/kg in assay [1] (setting [3]) is 20%. The “PGE in guinea pig ileum, dose ratio” value in assay [2] stood at 2.0.
For the molecule `CCN(CC)CCCCCOC(=O)N1Cc2ccccc2Oc2ccc(Cl)cc21` [Example 29, 5-(diethylamino)pentyl 8-chlorodibenz[b,f][1,4]oxazepine-10(11H)-carboxylate], the responders at 30 mg/kg in assay [1] (setting [3]) is 70%. The “potency in the Writhing Assay (in words)” value in assay [1] (mice, I.G.) is “most potent compound of the invention tested in this assay”.
On to `COC(=O)[C@@H](C)NC(=O)N1Cc2ccccc2Oc2ccc(Cl)cc21` [Example 31, methyl (D)-2R-[[(8-chlorodibenz[b,f][1,4]oxazepine-10(11H)-yl)carbonyl]amino]propanoate], for which, in assay [1] (setting [3]), the responders at 30 mg/kg worked out at 80%. In addition, the “PGE in guinea pig ileum, dose ratio” value in assay [2] was 1.4.
As usually defined, the ED50 is the dose at which the effect has come halfway, by size or by number of responders. As for `COC(=O)[C@H](C)NC(=O)N1Cc2ccccc2Oc2ccc(Cl)cc21` [Example 32, methyl (L)-2R-[[(8-chlorodibenz[b,f][1,4]oxazepine-10-(11H)-yl)carbonyl]amino]propanoate], the ED50 in assay [1] (Mus musculus, po, I.G., mice, PBQ, read-out: WRITHING ASSAY, ED50 Dose) turned out to be 7.2 mg/kg. Further, the “PGE in guinea pig ileum, dose ratio” value in assay [2] amounted to 3.5.
For `C[C@@H](NC(=O)N1Cc2ccccc2Oc2ccc(Cl)cc21)C(=O)O` [Example 33, (D)-2R-[[(8-chlorodibenz[b,f][1,4]oxazepine-10(11H)yl)carbonyl]amino]propanoic acid], the responders at 30 mg/kg in assay [1] (setting [3]) turned out to be 60%. For the same molecule, in assay [2], the “PGE in guinea pig ileum, dose ratio” value was determined as 2.0.
Turning to `C[C@H](NC(=O)N1Cc2ccccc2Oc2ccc(Cl)cc21)C(=O)O` [Example 34, (L)-2S-[[(8-chlorodibenz[b,f][1,4]oxazepine-10(11H)yl)carbonyl]amino]propanoic acid], the responders at 30 mg/kg in assay [1] (setting [3]) turned out to be 20%. Besides, the “PGE in guinea pig ileum, dose ratio” value in assay [2] amounted to 1.7.
In the case of `O=C(OCc1ccccc1)N1Cc2ccccc2Oc2ccc(Cl)cc21` [Example 43, phenylmethyl 8-chlorodibenz[b,f][1,4]oxazepine-10(11H)-carboxylate], in assay [2], the “PGE in guinea pig ileum, dose ratio” value is given as 0.3.
On the same count and under the same terms, in the case of `O=C(OCc1ccncc1)N1Cc2ccccc2Oc2ccc(Cl)cc21` [Example 44, (4-pyridinyl)methyl 8-chlorodibenz[b,f][1,4]oxazepine-10(11H)-carboxylate] it was 365.
For the molecule `O=C(NCc1ccncc1)N1Cc2ccccc2Oc2ccc(Cl)cc21` [Example 45, 8-chloro-N-(4-pyridinylmethyl)dibenz[b,f][1,4]oxazepine-10(11H)carboxamide,monohydrochloride], in assay [1] (setting [3]), the responders at 30 mg/kg came out at 60%. Besides, the “PGE in guinea pig ileum, dose ratio” value in assay [2] was found to be 1.0.
Consider `O=C(NCc1cccnc1)N1Cc2ccccc2Oc2ccc(Cl)cc21` [Example 46, 8-chloro-N-(3-pyridinylmethyl)dibenz[b,f]oxazepine-10(11H)-carboxamide, monohydrochloride], for which the responders at 30 mg/kg in assay [1] (setting [3]) was determined as 40%. In addition, in assay [2], the “PGE in guinea pig ileum, dose ratio” value was 2.7.
As for `O=C(NCc1ccccn1)N1Cc2ccccc2Oc2ccc(Cl)cc21` [Example 47, 8-chloro-N-(2-pyridinylmethyl)dibenz[b,f][1,4]oxazepine-10(11H)-carboxamide, monohydrochloride], the responders at 30 mg/kg in assay [1] (setting [3]) was 80%.
